Results from US9796719B2, “Compounds and pharmaceutical compositions thereof for the treatment of inflammatory disorders” (GALAPAGOS NV, priority 2013, dated 2017).

Each compound was assayed against hENPP2 (UniProtKB/SwissProt Sequence ref Q13822) (Homo sapiens (Human), UniProt Q13822) (assay: LPC hENPP2 assay (choline release, LPC as substrate)).
Type: biochemical
Protocol: The principle of the assay consists in quantifying the released choline with an enzymatic method using choline oxidase and peroxidase. Choline oxydation by choline oxydase releases betaine and peroxide. The latter is quantified in presence of HRP that converts the peroxide detection agent TOOS and 4-aminoantipyrine into quinoneimine dye. The appearance of quinoneimine dye is measured spectrophotometrically at 555 nm and is proportional to the amount of choline released by ENPP2. Inhibition of ENPP2 will result in a decrease of the signal.
The reaction is terminated and choline quantified by the addition of a 25 μL of a mixture containing 0.6 U/mL of choline oxidase, 0.6 U/mL of peroxydase, 1.8 mM TOOS, 1.2 mM amino-antipyrine, 20 mM EGTA (stop-developer solution) diluted in the buffer described above. […] is read on the Envision after an incubation of 30 min at room temperature (Excitation 555 nm, excitation light=70%).

| Compound | IC50 [nM] |
| --- | --- |
| CCc1nc2ccc(N3CCN(CCNC(=O)OC(C)(C)C)CC3)nn2c1N(C)c1nc(-c2ccc(F)cc2)cs1 [Cpd 56, tert-butyl 2-(4-(2-ethyl-3-((4-(4-fluorophenyl)thiazol-2-yl)(methyl)amino)imidazo[1,2-b]pyridazin-6-yl)piperazin-1-yl)ethylcarbamate] | > 1000 |
| CCOC(=O)NCCN1CCN(c2ccc3nc(CC)c(N(C)c4nc(-c5ccc(F)cc5)cs4)n3n2)CC1 [Cpd 58, ethyl 2-(4-(2-ethyl-3-((4-(4-fluorophenyl)thiazol-2-yl)(methyl)amino)imidazo[1,2-b]pyridazin-6-yl)piperazin-1-yl)ethylcarbamate] | > 1000 |
| CCc1nc2ccc(N3CCN(C(=O)OC(C)(C)C)[C@H](CO)C3)nn2c1N(C)c1nc(-c2ccc(F)cc2)cs1 [Cpd 59, (S)-tert-butyl 4-(2-ethyl-3-((4-(4-fluorophenyl)thiazol-2-yl)(methyl)amino)imidazo[1,2-b]pyridazin-6-yl)-2-(hydroxymethyl) piperazine-1-carboxylate] | > 1000 |
| CCc1nc2ccc(N3CCN(S(C)(=O)=O)[C@H](CO)C3)nn2c1N(C)c1nc(-c2ccc(F)cc2)c(CO)s1 [Cpd 68, (S)-(4-(2-ethyl-3-((4-(4-fluorophenyl)-5-(hydroxymethyl)thiazol-2-yl)(methyl)amino)imidazo[1,2-b]pyridazin-6-yl)-1-(methylsulfonyl)piperazin-2-yl)methanol] | 100 to 500 |
| CCc1nc2ccc(N3CCN(S(C)(=O)=O)[C@@H](CO)C3)nn2c1N(C)c1nc(-c2ccc(F)cc2)cs1 [Cpd 69, (R)-(4-(2-ethyl-3-((4-(4-fluorophenyl)thiazol-2-yl)(methyl)amino)imidazo[1,2-b]pyridazin-6-yl)-1-(methylsulfonyl)piperazin-2-yl)methanol] | > 1000 |
| CCc1nc2ccc(N3CCN(C4CCN(Cc5ccc(OC)cc5)C4=O)CC3)nn2c1N(C)c1nc(-c2ccc(F)cc2)cs1 (stereo not shown) [Cpd 70, 3-(4-(2-ethyl-3-((4-(4-fluorophenyl)thiazol-2-yl)(methyl)amino)imidazo[1,2-b]pyridazin-6-yl)piperazin-1-yl)-1-(4-methoxybenzyl) pyrrolidin-2-one] | 500 to 1000 |
| CCc1nc2ccc(N3CCN(CC(=O)N(C)C)CC3)nn2c1N(C)c1nc(-c2ccc(F)cc2C)cs1 [Cpd 73, 2-(4-(2-ethyl-3-((4-(4-fluoro-2-methylphenyl)thiazol-2-yl)(methyl)amino)imidazo[1,2-b]pyridazin-6-yl)piperazin-1-yl)-N,N-dimethylacetamide] | 100 to 500 |
| CCc1nc2ccc(N3C[C@H]4C[C@H]3CN4C(=O)OC(C)(C)C)nn2c1N(C)c1nc(-c2ccc(F)cc2)cs1 [Cpd 74, tert-butyl-(1R,4S)-5-(2-ethyl-3-((4-(4-fluorophenyl)thiazol-2-yl)(methyl)amino)imidazo[1,2-b]pyridazin-6-yl)-2,5-diazabicyclo[2.2.1] heptane-2-carboxylate] | > 1000 |
| CCc1nc2ccc(N3C[C@H]4C[C@H]3CN4C(C)=O)nn2c1N(C)c1nc(-c2ccc(F)cc2)cs1 [Cpd 75, 1-((1R,4S)-5-(2-ethyl-3-((4-(4-fluorophenyl)thiazol-2-yl)(methyl)amino)imidazo[1,2-b]pyridazin-6-yl)-2,5-diazabicyclo[2.2.1]heptan-2-yl)ethanone] | > 1000 |
| CCc1nc2ccc(N3C[C@H]4C[C@H]3CN4S(C)(=O)=O)nn2c1N(C)c1nc(-c2ccc(F)cc2)cs1 [Cpd 76, N-(2-ethyl-6-((1S,4R)-5-(methylsulfonyl)-2,5-diazabicyclo[2.2.1]heptan-2-yl)imidazo[1,2-b]pyridazin-3-yl)-4-(4-fluorophenyl)-N-methylthiazol-2-amine] | > 1000 |
| CCc1nc2ccc(N3CCC4(CCCCC4)CC3)nn2c1N(C)c1nc(-c2ccc(F)cc2)cs1 [Cpd 77, N-(2-ethyl-6-(3-azaspiro[5.5]undecan-3-yl)imidazo[1,2-b]pyridazin-3-yl)-4-(4-fluorophenyl)-N-methylthiazol-2-amine] | > 1000 |
| CCc1nc2ccc(N3CCC(N(C)C)CC3)nn2c1N(C)c1nc(-c2ccc(F)cc2)cs1 [Cpd 80, N-(6-(4-(dimethylamino)piperidin-1-yl)-2-ethylimidazo[1,2-b]pyridazin-3-yl)-4-(4-fluorophenyl)-N-methylthiazol-2-amine] | > 1000 |
| CCc1nc2ccc(N3CCC(NC(=O)CO)CC3)nn2c1N(C)c1nc(-c2ccc(F)cc2)cs1 [Cpd 85, N-(1-(2-ethyl-3-((4-(4-fluorophenyl)thiazol-2-yl)(methyl)amino)imidazo[1,2-b]pyridazin-6-yl)piperidin-4-yl)-2-hydroxyacetamide] | > 1000 |
| CCc1nc2ccc(N3CCC(NC(=O)C4(C)COC4)CC3)nn2c1N(C)c1nc(-c2ccc(F)cc2)cs1 [Cpd 86, N-(1-(2-ethyl-3-((4-(4-fluorophenyl)thiazol-2-yl)(methyl)amino)imidazo[1,2-b]pyridazin-6-yl)piperidin-4-yl)-3-methyloxetane-3-carboxamide] | > 1000 |
| CCc1nc2ccc(N3CCC(NC(=O)C4CCN(C(=O)OC(C)(C)C)CC4)CC3)nn2c1N(C)c1nc(-c2ccc(F)cc2)cs1 [Cpd 87, tert-butyl 4-(1-(2-ethyl-3-((4-(4-fluorophenyl)thiazol-2-yl)(methyl)amino)imidazo[1,2-b]pyridazin-6-yl)piperidin-4-ylcarbamoyl) piperidine-1-carboxylate] | > 1000 |
| CCc1nc2ccc(N3CCC(NC(=O)C4CCNCC4)CC3)nn2c1N(C)c1nc(-c2ccc(F)cc2)cs1 [Cpd 88, N-(1-(2-ethyl-3-((4-(4-fluorophenyl)thiazol-2-yl)(methyl)amino)imidazo[1,2-b]pyridazin-6-yl)piperidin-4-yl)piperidine-4-carboxamide] | 500 to 1000 |
| CCc1nc2ccc(N3CCC(O)CC3)nn2c1N(C)c1nc(-c2ccc(F)cc2)cs1 [Cpd 90, 1-(2-ethyl-3-((4-(4-fluorophenyl)thiazol-2-yl)(methyl)amino)imidazo[1,2-b]pyridazin-6-yl)piperidin-4-ol] | > 1000 |
| CCNC(=O)COC1CCCN(c2ccc3nc(CC)c(N(C)c4nc(-c5ccc(F)cc5)cs4)n3n2)C1 (stereo not shown) [Cpd 92, N-ethyl-2-(1-(2-ethyl-3-((4-(4-fluorophenyl)thiazol-2-yl)(methyl)amino)imidazo[1,2-b]pyridazin-6-yl)piperidin-3-yloxy)acetamide] | > 1000 |
| CCc1nc2ccc(N3CCC(CNC(=O)OC(C)(C)C)CC3)nn2c1N(C)c1nc(-c2ccc(F)cc2)cs1 [Cpd 103, [1-(2-Ethyl-3-{[4-(4-fluoro-phenyl)-thiazol-2-yl]-methyl-amino}-imidazo[1,2-b]pyridazin-6-yl)-piperidin-4-ylmethyl]-carbamic acid tert-butyl ester] | > 1000 |
| CCc1nc2ccc(N3CCC(CN)CC3)nn2c1N(C)c1nc(-c2ccc(F)cc2)cs1 [Cpd 104, N-(6-(4-(aminomethyl)piperidin-1-yl)-2-ethylimidazo[1,2-b]pyridazin-3-yl)-4-(4-fluorophenyl)-N-methylthiazol-2-amine] | > 1000 |
| CCc1nc2ccc(N3CCC(CNS(C)(=O)=O)CC3)nn2c1N(C)c1nc(-c2ccc(F)cc2)cs1 [Cpd 105, N-((1-(2-ethyl-3-((4-(4-fluorophenyl)thiazol-2-yl)(methyl)amino)imidazo[1,2-b]pyridazin-6-yl)piperidin-4-yl)methyl) methanesulfonamide] | > 1000 |
| CCc1nc2ccc(N3CCC(CNC(=O)N(C)C)CC3)nn2c1N(C)c1nc(-c2ccc(F)cc2)cs1 [Cpd 106, 3-((l-(2-ethyl-3-((4-(4-fluorophenyl)thiazol-2-yl)(methyl)amino)imidazo[1,2-b]pyridazin-6-yl)piperidin-4-yl)methyl)-1,1-dimethylurea] | > 1000 |
| CCc1nc2ccc(N3CCC(CNC(=O)C4CCOCC4)CC3)nn2c1N(C)c1nc(-c2ccc(F)cc2)cs1 [Cpd 107, N-((1-(2-ethyl-3-((4-(4-fluorophenyl)thiazol-2-yl)(methyl)amino)imidazo[1,2-b]pyridazin-6-yl)piperidin-4-yl)methyl) tetrahydro-2H-pyran-4-carboxamide] | 500 to 1000 |
| CCc1nc2ccc(N3CCCC(N4CCOCC4)C3)nn2c1N(C)c1nc(-c2ccc(F)cc2)cs1 (stereo not shown) [Cpd 110, N-(2-ethyl-6-(3-morpholino-piperidin-1-yl)imidazo[1,2-b]pyridazin-3-yl)-4-(4-fluorophenyl)-N-methylthiazol-2-amine] | > 1000 |
| CCc1nc2ccc(N3CCC(N4CCCCC4)CC3)nn2c1N(C)c1nc(-c2ccc(F)cc2)cs1 [Cpd 111, N-(6-(1,4′-bipiperidin-1′-yl)-2-ethylimidazo[1,2-b]pyridazin-3-yl)-4-(4-fluorophenyl)-N-methylthiazol-2-amine] | > 1000 |
| CCc1nc2ccc(N3CCCC(N4CCC(O)CC4)C3)nn2c1N(C)c1nc(-c2ccc(F)cc2)cs1 (stereo not shown) [Cpd 112, l′-(2-ethyl-3-((4-(4-fluorophenyl)thiazol-2-yl)(methyl)amino)imidazo[1,2-b]pyridazin-6-yl)-1,3′-bipiperidin-4-ol] | > 1000 |
| CCc1nc2ccc(N3CCC(c4ccccc4)CC3)nn2c1N(C)c1nc(-c2ccc(F)cc2)cs1 [Cpd 113, N-(2-ethyl-6-(4-phenylpiperidin-1-yl)imidazo[1,2-b]pyridazin-3-yl)-4-(4-fluorophenyl)-N-methylthiazol-2-amine] | > 1000 |
| CCc1nc2ccc(N3CCC4(CCOCC4)C3)nn2c1N(C)c1nc(-c2ccc(F)cc2)cs1 [Cpd 117, N-(2-ethyl-6-(8-oxa-2-azaspiro[4.5]decan-2-yl)imidazo[1,2-b]pyridazin-3-yl)-4-(4-fluorophenyl)-N-methylthiazol-2-amine] | > 1000 |
